Source: ChEMBL document CHEMBL1201862, “PubChem BioAssay data set” (2004)
Active and inactive are the calls of the source.

Experiments:
[1] = target: SWI/SNF-related matrix-associated actin-dependent regulator of chromatin subfamily A member 2 (Homo sapiens, UniProt P51531); assay: Luminescence-based cell-based high throughput dose response assay to identify activators of the function of SWI/SNF related, matrix associated, actin dependent regulator of chromatin, subfamily a, member 2 (SMARCA2, BRM).; assay type: functional
[2] = Counterscreen for activators of the function of SWI/SNF related, matrix associated, actin dependent regulator of chromatin, subfamily a, member 2 (SMARCA2, BRM): Luminescence-based cell-based high throughput dose response assay to identify non-selective compounds using the VP16 reporter assay.; assay type: functional
[3] = target: Luciferin 4-monooxygenase (Photinus pyralis, UniProt P08659); assay: firefly luciferase enzyme inhibitors, dose response, biochemical, luminescence (AID 1891)
[4] = Luminescence Cell-Based Dose Confirmation HTS to Identify Inhibitors of Platelet Dense Granule Release. [Related pubchem assays: 1663 (Primary HTS), 1678 (Summary of Project)]; assay type: functional
[5] = cells; assay type: functional
[6] = target: Voltage-dependent T-type calcium channel subunit alpha-1H (Homo sapiens, UniProt O95180); assay type: functional;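 note: channel activity triggered by adding a high calcium stimulation buffer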
[7] = target: T1, Lysine-specific demethylase 4C (Homo sapiens, UniProt Q9H3R0); assay: GASC-1 (JMJD2C) histone demethylase inhibitors, dose response, biochemical, DELFIA europium, cherry-picked samples (AID 488835); assay type: functional
T1 sequence (Q9H3R0 whole entry): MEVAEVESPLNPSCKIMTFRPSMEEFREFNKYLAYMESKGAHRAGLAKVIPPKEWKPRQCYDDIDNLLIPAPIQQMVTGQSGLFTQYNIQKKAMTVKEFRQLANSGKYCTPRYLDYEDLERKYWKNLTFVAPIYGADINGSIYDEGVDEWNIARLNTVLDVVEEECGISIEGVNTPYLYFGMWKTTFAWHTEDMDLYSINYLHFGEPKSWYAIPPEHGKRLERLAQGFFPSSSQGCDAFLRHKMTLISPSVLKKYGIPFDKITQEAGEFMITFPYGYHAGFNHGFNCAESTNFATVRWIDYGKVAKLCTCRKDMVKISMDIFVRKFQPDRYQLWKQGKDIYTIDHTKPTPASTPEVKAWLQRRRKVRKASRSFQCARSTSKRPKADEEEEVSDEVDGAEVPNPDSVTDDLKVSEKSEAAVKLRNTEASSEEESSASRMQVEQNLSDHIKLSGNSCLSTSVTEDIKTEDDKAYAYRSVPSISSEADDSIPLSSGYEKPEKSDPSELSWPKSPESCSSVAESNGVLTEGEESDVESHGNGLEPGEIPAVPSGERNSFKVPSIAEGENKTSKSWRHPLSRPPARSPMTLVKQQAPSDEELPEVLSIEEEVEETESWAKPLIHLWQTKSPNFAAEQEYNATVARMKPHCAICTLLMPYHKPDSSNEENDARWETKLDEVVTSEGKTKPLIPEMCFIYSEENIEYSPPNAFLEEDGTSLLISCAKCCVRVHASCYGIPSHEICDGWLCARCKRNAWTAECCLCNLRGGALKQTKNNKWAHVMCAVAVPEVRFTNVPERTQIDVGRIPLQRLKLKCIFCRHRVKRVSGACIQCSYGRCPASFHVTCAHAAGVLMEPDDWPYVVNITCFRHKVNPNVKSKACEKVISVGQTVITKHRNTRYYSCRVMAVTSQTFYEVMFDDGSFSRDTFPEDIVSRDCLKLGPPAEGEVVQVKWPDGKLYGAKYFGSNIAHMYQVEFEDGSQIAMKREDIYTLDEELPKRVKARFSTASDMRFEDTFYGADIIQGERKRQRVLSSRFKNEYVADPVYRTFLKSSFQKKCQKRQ

[8] = target: T2, Heat shock factor protein 1 (Mus musculus, UniProt P38532); assay: HSF1 potentiators in luciferase reporter cells, confirmation, cell-based, NIH3T3, luminescence, dose retest (AID 435004); assay type: functional;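 note: stress induced by proteasome inhibitor MG132 added 30 min after compound; luciferase reporter driven by HSF1 response element in NIH3T3 cells; actives raise luminescence as potentiators of the MG132 stress response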
T2 sequence (P38532 whole entry): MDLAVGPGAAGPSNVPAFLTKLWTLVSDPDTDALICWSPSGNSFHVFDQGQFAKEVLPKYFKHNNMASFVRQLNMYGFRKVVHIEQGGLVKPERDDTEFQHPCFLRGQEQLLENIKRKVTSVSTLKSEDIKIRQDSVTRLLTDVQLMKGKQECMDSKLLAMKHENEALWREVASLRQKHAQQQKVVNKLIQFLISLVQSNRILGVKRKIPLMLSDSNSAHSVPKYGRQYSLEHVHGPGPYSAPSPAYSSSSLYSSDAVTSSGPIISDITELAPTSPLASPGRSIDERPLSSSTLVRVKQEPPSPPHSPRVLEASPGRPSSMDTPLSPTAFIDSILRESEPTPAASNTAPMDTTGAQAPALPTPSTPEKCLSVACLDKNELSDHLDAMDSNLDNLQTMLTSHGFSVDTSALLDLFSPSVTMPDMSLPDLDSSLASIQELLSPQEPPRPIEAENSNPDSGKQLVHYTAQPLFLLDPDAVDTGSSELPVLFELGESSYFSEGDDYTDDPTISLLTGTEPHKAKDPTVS

[9] = target: T3, Streptokinase A (Streptococcus pyogenes serotype M1, UniProt P10520); assay: S. pyogenes streptokinase expression inhibitors, potency, dose response, plasminogen activation absorbance, OD405 (AID 1914); assay type: functional, Streptococcus pyogenes M1 GAS;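 note: secreted streptokinase activity via plasminogen activation per viability signal from cell pellet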
T3 sequence (P10520 whole entry): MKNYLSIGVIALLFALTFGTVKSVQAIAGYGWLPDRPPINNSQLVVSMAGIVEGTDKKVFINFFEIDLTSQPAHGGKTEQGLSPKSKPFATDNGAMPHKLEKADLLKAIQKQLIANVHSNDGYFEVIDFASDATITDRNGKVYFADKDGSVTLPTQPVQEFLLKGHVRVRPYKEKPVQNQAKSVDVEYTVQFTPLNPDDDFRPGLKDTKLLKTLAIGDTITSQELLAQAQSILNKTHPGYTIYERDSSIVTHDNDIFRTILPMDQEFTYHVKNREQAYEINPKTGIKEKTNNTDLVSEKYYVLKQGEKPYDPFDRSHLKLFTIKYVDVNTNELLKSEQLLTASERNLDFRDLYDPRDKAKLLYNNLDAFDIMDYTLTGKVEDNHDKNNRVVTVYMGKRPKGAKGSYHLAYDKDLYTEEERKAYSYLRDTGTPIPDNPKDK

[10] = system: HEK293; assay: cells; assay type: functional, cell-based; settings: Homo sapiens
[11] = system: HEK293; assay: cells; assay type: functional, cell-based; settings: Homo sapiens; remark: listed apart in the source
[12] = system: Streptococcus; assay: Group A Streptococcus viability loss, dose response, counter-screen for streptokinase expression inhibitor project, luminescence, BacTiterGlo (AID 1915); assay type: functional, organism-based;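 note: potency for reduction of bacterial viability or growth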
[13] = system: Streptococcus sp. 'group A'; assay: growth inhibition of control SK(-) GAS strain, dose response, counter-screen for streptokinase expression inhibitor project, luminescence, kanamycin, BacTiterGlo, confirmation (AID 1900); assay type: functional, organism-based
[14] = system: HEK293; assay: NOD1 signaling inhibitors, primary screen, cell-based, luminescence, uHTS (AID 1578); assay type: functional; settings: Homo sapiens
[15] = system: HEK293; assay: NOD2 signaling inhibitors in MDP-stimulated cells, cell-based, uHTS, luminescence (AID 2001); assay type: functional; settings: Homo sapiens
[16] = cells; assay type: functional, cell-based
[17] = cells; assay type: functional, cell-based; remark: listed apart in the source
[18] = system: HEK293; assay: inhibitors of LMP1-driven NF-kB reporter, dose response, cell-based, HEK293, luciferase, cherry-pick (AID 588343); assay type: functional; settings: Homo sapiens
[19] = target: Heat shock protein HSP 90-alpha (Homo sapiens, UniProt P07900); assay type: functional, organism-based
[20] = target: Nonstructural protein 1 (Influenza A virus, UniProt Q194T2); assay type: functional, Influenza A virus (A/California/07/2009(H1N1))
[21] = target: T4, Ubiquitin-conjugating enzyme E2 N (Homo sapiens, UniProt P61088); assay type: functional;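 note: Dose-response confirmation in a TR-FRET assay detecting UBC13-driven polyubiquitin chain formation, inhibition measured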
T4 sequence (P61088 whole entry): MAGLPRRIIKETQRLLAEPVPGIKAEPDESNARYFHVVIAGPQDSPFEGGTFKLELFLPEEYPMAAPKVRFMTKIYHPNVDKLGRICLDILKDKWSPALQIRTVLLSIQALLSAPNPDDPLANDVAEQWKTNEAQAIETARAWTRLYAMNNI

[22] = Luminescence Cell-Based Dose Response HTS to Identify Inhibitors of 5'UTR Stem-Loop Driven Prion Protein mRNA Translation in H4 Neuroglioblastoma Cells. [Related pubchem assays: 1827 (Project Summary), 1813 (Primary HTS)]; assay type: functional
[23] = inhibitors of firefly luciferase expression or activity, dose response, H4 neuroglioma cells, luminescence (AID 1990); assay type: functional, cell-based
[24] = inhibitors of SNCA 5'UTR-driven reporter translation, confirmation, H4 neuroglioma cells, luminescence (AID 1988); assay type: functional, cell-based

Sequence of Voltage-dependent T-type calcium channel subunit alpha-1H (O95180 whole entry): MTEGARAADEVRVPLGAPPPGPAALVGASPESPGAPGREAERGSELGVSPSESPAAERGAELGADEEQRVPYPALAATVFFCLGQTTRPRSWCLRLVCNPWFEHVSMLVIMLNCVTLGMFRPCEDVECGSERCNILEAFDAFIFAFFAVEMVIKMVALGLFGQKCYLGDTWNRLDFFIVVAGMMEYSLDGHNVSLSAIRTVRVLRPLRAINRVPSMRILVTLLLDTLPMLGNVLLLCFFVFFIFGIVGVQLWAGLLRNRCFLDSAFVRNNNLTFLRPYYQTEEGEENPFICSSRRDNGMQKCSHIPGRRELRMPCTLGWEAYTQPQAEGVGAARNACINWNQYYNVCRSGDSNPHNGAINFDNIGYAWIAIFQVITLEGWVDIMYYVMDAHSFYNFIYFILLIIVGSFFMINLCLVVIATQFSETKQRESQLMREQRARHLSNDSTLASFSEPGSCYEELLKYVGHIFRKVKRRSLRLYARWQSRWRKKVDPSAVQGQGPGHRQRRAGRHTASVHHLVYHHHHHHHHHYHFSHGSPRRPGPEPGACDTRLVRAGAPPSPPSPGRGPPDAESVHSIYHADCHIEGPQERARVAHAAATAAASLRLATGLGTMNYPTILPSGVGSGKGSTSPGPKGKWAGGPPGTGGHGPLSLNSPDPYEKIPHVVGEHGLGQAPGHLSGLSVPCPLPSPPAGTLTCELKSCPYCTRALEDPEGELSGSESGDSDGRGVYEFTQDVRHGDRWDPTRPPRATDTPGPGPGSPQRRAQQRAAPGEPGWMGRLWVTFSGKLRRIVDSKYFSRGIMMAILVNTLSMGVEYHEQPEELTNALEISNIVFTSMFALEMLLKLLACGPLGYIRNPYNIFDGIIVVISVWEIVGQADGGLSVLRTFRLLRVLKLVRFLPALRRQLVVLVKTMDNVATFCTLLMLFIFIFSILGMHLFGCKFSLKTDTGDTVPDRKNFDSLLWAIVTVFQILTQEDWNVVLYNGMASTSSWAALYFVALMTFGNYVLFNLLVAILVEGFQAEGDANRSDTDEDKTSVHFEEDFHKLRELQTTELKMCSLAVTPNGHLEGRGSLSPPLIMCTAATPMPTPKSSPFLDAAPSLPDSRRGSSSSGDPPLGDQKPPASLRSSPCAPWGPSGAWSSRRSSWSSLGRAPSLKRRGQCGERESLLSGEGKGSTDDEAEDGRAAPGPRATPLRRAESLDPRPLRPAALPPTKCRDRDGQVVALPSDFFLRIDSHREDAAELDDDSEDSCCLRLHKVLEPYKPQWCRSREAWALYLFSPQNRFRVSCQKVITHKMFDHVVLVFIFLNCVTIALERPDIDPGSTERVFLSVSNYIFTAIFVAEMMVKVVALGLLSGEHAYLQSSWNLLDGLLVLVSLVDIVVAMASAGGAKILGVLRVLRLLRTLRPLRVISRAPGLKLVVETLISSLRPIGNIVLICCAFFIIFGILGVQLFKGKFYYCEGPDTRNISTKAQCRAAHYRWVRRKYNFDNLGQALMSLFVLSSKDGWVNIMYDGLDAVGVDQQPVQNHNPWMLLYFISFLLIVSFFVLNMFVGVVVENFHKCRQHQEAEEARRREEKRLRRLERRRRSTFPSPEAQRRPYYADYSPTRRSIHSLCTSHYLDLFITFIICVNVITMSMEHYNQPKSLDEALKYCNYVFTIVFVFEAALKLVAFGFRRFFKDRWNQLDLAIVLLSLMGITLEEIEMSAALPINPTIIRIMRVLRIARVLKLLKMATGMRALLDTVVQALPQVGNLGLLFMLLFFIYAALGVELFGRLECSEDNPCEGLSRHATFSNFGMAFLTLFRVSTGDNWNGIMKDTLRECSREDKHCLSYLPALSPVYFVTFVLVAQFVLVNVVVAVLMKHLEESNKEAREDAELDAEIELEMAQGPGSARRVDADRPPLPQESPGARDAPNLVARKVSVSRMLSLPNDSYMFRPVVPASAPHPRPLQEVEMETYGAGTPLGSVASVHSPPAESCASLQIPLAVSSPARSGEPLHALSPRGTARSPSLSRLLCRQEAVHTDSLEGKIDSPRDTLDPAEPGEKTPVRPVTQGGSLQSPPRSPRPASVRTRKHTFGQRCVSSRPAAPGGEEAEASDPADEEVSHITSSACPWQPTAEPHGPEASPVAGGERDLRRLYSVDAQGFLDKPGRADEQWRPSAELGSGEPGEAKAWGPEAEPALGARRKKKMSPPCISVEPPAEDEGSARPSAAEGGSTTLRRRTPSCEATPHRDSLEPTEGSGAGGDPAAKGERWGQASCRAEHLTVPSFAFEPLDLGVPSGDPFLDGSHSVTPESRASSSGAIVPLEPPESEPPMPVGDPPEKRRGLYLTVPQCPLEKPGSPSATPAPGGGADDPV
Sequence of Nonstructural protein 1 (Q194T2 whole entry): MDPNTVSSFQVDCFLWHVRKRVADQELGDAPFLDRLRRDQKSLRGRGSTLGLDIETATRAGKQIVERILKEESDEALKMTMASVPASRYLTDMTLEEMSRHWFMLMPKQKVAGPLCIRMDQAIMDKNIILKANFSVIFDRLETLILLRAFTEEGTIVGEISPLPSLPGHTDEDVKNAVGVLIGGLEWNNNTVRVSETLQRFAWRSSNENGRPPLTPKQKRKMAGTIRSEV
Sequence of SWI/SNF-related matrix-associated actin-dependent regulator of chromatin subfamily A member 2 (P51531 whole entry): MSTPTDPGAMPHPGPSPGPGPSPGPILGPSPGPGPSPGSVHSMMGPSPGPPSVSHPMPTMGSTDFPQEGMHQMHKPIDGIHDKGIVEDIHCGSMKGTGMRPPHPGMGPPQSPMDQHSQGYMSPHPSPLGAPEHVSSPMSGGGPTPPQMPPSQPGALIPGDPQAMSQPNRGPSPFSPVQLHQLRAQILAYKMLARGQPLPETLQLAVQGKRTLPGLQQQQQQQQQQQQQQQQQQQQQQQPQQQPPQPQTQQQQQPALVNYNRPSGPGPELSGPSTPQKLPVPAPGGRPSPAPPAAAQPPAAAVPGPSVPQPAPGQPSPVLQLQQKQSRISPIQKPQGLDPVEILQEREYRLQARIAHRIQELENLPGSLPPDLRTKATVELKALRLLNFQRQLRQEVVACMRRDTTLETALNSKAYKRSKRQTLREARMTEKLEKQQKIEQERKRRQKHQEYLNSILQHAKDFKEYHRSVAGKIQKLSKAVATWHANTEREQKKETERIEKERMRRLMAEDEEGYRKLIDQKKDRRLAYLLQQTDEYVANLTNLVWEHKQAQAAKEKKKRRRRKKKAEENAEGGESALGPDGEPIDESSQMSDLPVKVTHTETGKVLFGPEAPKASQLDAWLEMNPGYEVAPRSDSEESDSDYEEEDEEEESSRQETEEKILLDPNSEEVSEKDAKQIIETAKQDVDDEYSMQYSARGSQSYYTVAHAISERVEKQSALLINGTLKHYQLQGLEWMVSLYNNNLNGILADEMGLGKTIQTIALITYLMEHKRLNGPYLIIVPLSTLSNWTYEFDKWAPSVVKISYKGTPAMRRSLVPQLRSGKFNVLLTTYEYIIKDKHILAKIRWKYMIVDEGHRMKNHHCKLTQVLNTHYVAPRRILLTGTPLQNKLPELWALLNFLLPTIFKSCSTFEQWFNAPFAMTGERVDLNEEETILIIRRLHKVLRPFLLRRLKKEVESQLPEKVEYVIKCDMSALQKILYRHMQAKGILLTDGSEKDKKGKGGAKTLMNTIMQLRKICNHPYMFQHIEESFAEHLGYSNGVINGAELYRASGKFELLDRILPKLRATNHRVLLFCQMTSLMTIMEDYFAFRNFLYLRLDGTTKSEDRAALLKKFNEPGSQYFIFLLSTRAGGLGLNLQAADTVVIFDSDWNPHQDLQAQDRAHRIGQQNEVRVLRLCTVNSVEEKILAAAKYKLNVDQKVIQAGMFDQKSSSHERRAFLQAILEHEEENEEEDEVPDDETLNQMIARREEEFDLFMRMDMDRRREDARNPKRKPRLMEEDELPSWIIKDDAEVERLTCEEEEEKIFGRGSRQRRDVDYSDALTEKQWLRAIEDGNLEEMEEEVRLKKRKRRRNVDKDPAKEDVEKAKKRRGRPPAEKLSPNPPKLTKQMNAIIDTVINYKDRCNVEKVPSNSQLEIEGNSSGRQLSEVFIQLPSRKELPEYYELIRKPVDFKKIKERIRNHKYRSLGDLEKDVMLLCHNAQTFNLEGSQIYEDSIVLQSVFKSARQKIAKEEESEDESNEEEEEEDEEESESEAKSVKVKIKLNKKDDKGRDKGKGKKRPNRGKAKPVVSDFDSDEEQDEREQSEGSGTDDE
Sequence of Luciferin 4-monooxygenase (P08659 whole entry): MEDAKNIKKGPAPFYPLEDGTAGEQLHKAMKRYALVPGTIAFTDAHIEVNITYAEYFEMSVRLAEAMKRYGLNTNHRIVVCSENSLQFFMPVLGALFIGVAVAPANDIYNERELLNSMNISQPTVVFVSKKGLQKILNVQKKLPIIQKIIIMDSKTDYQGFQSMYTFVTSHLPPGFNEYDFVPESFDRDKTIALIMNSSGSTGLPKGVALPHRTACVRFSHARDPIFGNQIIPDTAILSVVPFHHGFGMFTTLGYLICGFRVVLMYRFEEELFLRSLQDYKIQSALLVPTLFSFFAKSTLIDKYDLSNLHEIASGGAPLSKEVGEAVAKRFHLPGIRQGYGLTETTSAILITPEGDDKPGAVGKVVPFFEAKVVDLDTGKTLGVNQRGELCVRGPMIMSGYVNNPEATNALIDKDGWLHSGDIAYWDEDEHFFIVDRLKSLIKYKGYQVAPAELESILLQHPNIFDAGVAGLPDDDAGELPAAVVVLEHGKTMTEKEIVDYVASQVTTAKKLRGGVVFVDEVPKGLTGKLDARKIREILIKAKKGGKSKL

With `COc1cccc(C(=O)COC(=O)c2cccs2)c1` the EC50 [1] was > 91.1 µM (inactive) and the EC50 [2] was > 91.1 µM (inactive).

With `Cc1nnc2c(N(C)S(=O)(=O)c3ccccc3)nc3ccccc3n12` the EC50 [3] was > 112 µM (not active), the EC50 [1] was > 91.2 µM (inactive) and the EC50 [2] was > 91.2 µM (inactive). For the same compound, the EC50 [4] was > 112 µM (not active).

With `CCCCn1c(=O)c(C(=O)Nc2nnc(C(C)C)s2)c(O)c2ccccc21` the IC50 [5] was 5.24 µM (active).

In the case of `O=C(CCSc1ccc(Cl)c(Cl)c1)NC12CC3CC(CC(C3)C1)C2`, the EC50 [6] is reported as 5.57 µM (active).

In the case of `CC(C(=O)OCC(=O)Nc1ccc(S(=O)(=O)N2CCCCC2)cc1)N1C(=O)c2ccccc2C1=O` (stereo not given), the EC50 [6] is reported as 5.44 µM (active).

In the case of `COc1ccccc1/C=C1/SC(=S)N(C(C)C(=O)NC2C=CS(=O)(=O)C2)C1=O` (stereo not given), the AC50 [7] is reported as > 60 µM (inactive) and the EC50 [8] is reported as 57.9 µM (active).

For `Cc1ccc(C(=O)NCc2ccc3c(c2)OCO3)cc1S(=O)(=O)N1CCCCC1`, the EC50 [6] was 5.23 µM (active).

For `O=C(NC(NC(=S)Nc1ccccc1Cl)C(Cl)(Cl)Cl)c1cccc(Cl)c1` (stereo not given), the EC50 [9] was 5.81 µM (active), the IC50 [10] was 3.72 µM (active) and the IC50 [11] was 11.5 µM (active). The EC50 [12] was 3.79 µM (active), the EC50 [13] was 2.05 µM (active) and the EC50 [14] was > 20 µM (inactive). The IC50 [15] was 3.78 µM (active).

For `CC1CCCCN1C(=O)CSCC(=O)Nc1nc(-c2cccs2)cs1` (stereo not given), the EC50 [6] was 4.06 µM (active).

For `CCCCOC(=O)n1c(=O)oc2cc(S(=O)(=O)N3CCCCC3)ccc21`, the EC50 [16] was > 350 µM (not active), the EC50 [17] was > 350 µM (not active) and the EC50 [6] was 4.48 µM (active).

With `CCc1sc(C(=O)Nc2nc(-c3ccccn3)cs2)cc1C` the AC50 [18] was 1.33 µM (active) and the AC50 [19] was 7.91 µM (active).

In the case of `O=C(OCc1nnc(-c2ccccc2)o1)c1cc(S(=O)(=O)N2CCOCC2)c(Cl)cc1Cl`, the AC50 [7] is reported as 10.8 µM (active).

For `COCCCNC(=S)NNC(=O)c1ccccn1`, the IC50 [20] was 2.32 µM (active), the AC50 [7] was 24.1 µM (active) and the IC50 [21] was > 20 µM (inactive).

In the case of `CCOC(=O)c1sc(NC(=O)CNCc2ccccn2)c(C(=O)OCC)c1C`, the EC50 [22] is reported as 9.71 µM (active), the AC50 [18] is reported as 2.35 µM (active) and the EC50 [23] is reported as 11.7 µM (active). The EC50 [12] was 5.05 µM (active), the EC50 [13] was 0.195 µM (active) and the IC50 [20] was 8.76 µM (active). The EC50 [24] was 8.92 µM (active).

With `Cc1ccccc1NC(=O)c1c(F)c(F)c(F)c(F)c1F` the AC50 [7] was 29.3 µM (active).

With `COc1ccc(OC)c2sc(NC(=O)C3COc4ccccc4O3)nc12` (stereo not given) the EC50 [6] was 78 µM (active).

With `O=C(N/N=C/c1ccc(OC(=O)c2cccs2)cc1)c1ccccn1` the IC50 [5] was 5.37 µM (active).

In the case of `CC(C)c1c(CN(C)C(C)Cc2ccccc2)n(C)n(-c2ccccc2)c1=O` (stereo not given) [FAMPROFAZONE], the AC50 [18] is reported as 292 µM (active).
